Marks after values point to notes of the source that are not given here.
Tested on: photodamaged facial skin
Test: clinical study of topical treatment of photodamaged facial skin, 12 weeks
Assay type: in vivo, human
Conditions: for investigator's assessment of overall improvement in skin condition (relative to baseline): 6-point scale (1=excellent improvement to 5=no improvement; 6=worse); for investigator's assessment of overall skin condition: 10 point scale (0=None; 1-3=Mild; 4-6=Moderate; 7-9=Severe); for Mean Improvement from Baseline: TEWL / Mean Improvement from Baseline: Coarse Wrinkles / Mean Improvement from Baseline: Fine Wrinkles / Mean Improvement from Baseline: Mottled Hyperpigmentation / Mean Improvement from Baseline: Overall Skin Condition / Mean Improvement from Baseline: Roughness / Subjects Reporting Improvement from Baseline: Blotchiness / Subjects Reporting Improvement from Baseline: Color / Subjects Reporting Improvement from Baseline: Fine Wrinkles / Subjects Reporting Improvement from Baseline: Texture: 0.10% topical; for Mean Improvement from Baseline: Coarse Wrinkles / Mean Improvement from Baseline: Fine Wrinkles / Mean Improvement from Baseline: Mottled Hyperpigmentation / Mean Improvement from Baseline: Overall Skin Condition / Mean Improvement from Baseline: Roughness: expert evaluation; for Skin Moisture / TEWL: 0.10% in MillCreek Lotion twice daily
Source text: A clinical study has been conducted to determine the cosmetic efficacy and subjects' tolerance of topical 6-furfurylamino-9-(2-tetrahydropyranyl)purine (0.10%) applied twice daily for 12 weeks to improve the clinical signs and symptoms of photodamaged facial skin. Forty female volunteer subjects age 40 to 65 with mild to moderate signs of photo damaged facial skin were enroled in the study. Thirty four subjects competed the study; the mean age of subjects competing the study was about 54 years. Subjects were instructed to apply the test product to the entire facial skin twice daily (i.e., early morning and approximately 1 hour before bedtime) for 12 consecutive weeks. Subjects were also instructed that, other than sunscreens or mild cleansers and use of color cosmetics, no other topical skin care products or medications were to be used on the face during the study. The test product comprised 0.1 percent 6-furfurylamino-9-(2-tetrahydropyranyl)purine in MillCreek Lotion as vehicle.
Subjects were assessed at weeks 2, 4, 8, and 12. The treated facial skin was evaluated for clinical signs of skin aging (e.g., coarse and fine wrinkles, roughness, mottled hyperpigmentation) at study entry (baseline) as well as 2, 4, 8 and 12 weeks. The subjects' self-assessment of improvement over baseline (wrinkles, texture, blotchiness, color, and overall improvement) were also obtained. In addition, transepidermal water loss (TEWL) and skin moisture measurements were taken on the cheeks of all subjects.
TEWL refers to the amount of water vapor loss through the stratum corneum. […] TEWL measurements were taken using a TEWL meter (Courage & Khazaka, Köln, Germany) having composed of a probe (containing humidity and temperature sensors) connected to a central processing unit. For each subject, the probe was placed in the center of both cheeks and measurements taken in duplicate.
An indirect measurement of the skin's moisture content was made by measuring changes in the skin's electrical properties. Impedance based capacitance measurements were taken on the skin using a NOVA DPM 9003® (NOVA Technologies, Gloucester, Mass., USA). The instrument performs measurements at varying preselected frequencies (up to 1 MHz) of the applied alternating current. A value directly related to capacitance is determined in arbitrary units; a higher value indicates a greater capacitance which indicates an increased level of moisture at the test site. Measurements in triplicate were taken in the center of both cheeks for each test subject.
At the baseline (Day 0) visit, an investigator evaluated each subject's face for the presence of fine wrinkles, coarse wrinkles, roughness, mottled hyperpigmentation, and other parameters using a five-point scale (0=None; 1=Minimal; 2=Mild; 3=Moderate; and 4=Severe). The overall severity of skin photodamage (wrinkles, roughness and mottled hyperpigmentation) was evaluated using a 10 point scale (0=None; 1-3=Mild; 4-6=Moderate; and 7-9=Severe); subjects with baseline severity scores greater than 6 were excluded from the study.
On each subsequent visit, the investigator evaluated overall improvement compared to baseline using a 6-point scale (1=excellent improvement; 2=marked improvement; 3=moderate improvement; 4=slight improvement; 5=no improvement; and 6=worse).
At each subsequent visit, the subjects were asked to complete a self-assessment questionnaire to assess the improvement from baseline for skin texture, skin color, blotchiness (i.e., brown spots), fine wrinkles; and overall improvement using a five-point scale (1=much improved; 2=somewhat improved; 3=no change; 4=somewhat worse; and 5=much worse).
This Example compares the clinical data for topically applied 6-furfurylamino-9-(2-tetrahydropyranyl)purine (0.10%) taken from Example 23 with similar clinical data generated for topically applied kinetin (0.1%) from an earlier study. […]

[1] = Eight Week Data, self assessment
[2] = Twelve Week Data, self assessment
[3] = Week 2, investigator, five-point scale 0=None to 4=Severe
[4] = Week 2, subjects' self assessment, five-point scale 1=much improved to 5=much worse
[5] = Week 4, investigator, five-point scale 0=None to 4=Severe
[6] = Week 4, subjects' self assessment, five-point scale 1=much improved to 5=much worse
[7] = Week 8, investigator, five-point scale 0=None to 4=Severe
[8] = Week 8, subjects' self assessment, five-point scale 1=much improved to 5=much worse
[9] = Week 12, investigator, five-point scale 0=None to 4=Severe
[10] = Week 12, subjects' self assessment, five-point scale 1=much improved to 5=much worse

## c1coc(CNc2ncnc3c2ncn3C2CCCCO2)c1 (centres unmarked) [6-furfurylamino-9-(2-tetrahydropyranyl)purine]
2 weeks
  overall skin condition, change relative to baseline: −1.22%
  investigator's assessment of overall improvement in skin condition (relative to baseline): 4.95
  investigator's assessment of overall skin condition: 4.05
4 weeks
  overall improvement, change relative to 2 week data: −10.61%
  overall skin condition, change relative to baseline: −15.23%
  investigator's assessment of overall improvement in skin condition (relative to baseline): 4.44
  investigator's assessment of overall skin condition: 3.56
8 weeks
  overall improvement, change relative to 2 week data: −16.67%
  overall skin condition, change relative to baseline: −24.32%
  investigator's assessment of overall improvement in skin condition (relative to baseline): 4.11
  investigator's assessment of overall skin condition: 3.20
12 weeks
  overall improvement, change relative to 2 week data: −17.16%
  overall skin condition, change relative to baseline: −27.97%
  investigator's assessment of overall improvement in skin condition (relative to baseline): 4.12
  investigator's assessment of overall skin condition: 3.03
Eight Week Data
  Mean Improvement from Baseline: TEWL: 1%
  Mean Improvement from Baseline: Coarse Wrinkles: 7%
  Mean Improvement from Baseline: Fine Wrinkles: 22%*
  Mean Improvement from Baseline: Mottled Hyperpigmentation: 31%*
  Mean Improvement from Baseline: Overall Skin Condition: 24%*
  Mean Improvement from Baseline: Roughness: 86%*
[1]
  Subjects Reporting Improvement from Baseline: Blotchiness: 60%
  Subjects Reporting Improvement from Baseline: Color: 66%
  Subjects Reporting Improvement from Baseline: Fine Wrinkles: 83%
  Subjects Reporting Improvement from Baseline: Texture: 83%
Twelve Week Data
  Mean Improvement from Baseline: TEWL: 28%
  Mean Improvement from Baseline: Coarse Wrinkles: 14%*
  Mean Improvement from Baseline: Fine Wrinkles: 28%*
  Mean Improvement from Baseline: Mottled Hyperpigmentation: 41%*
  Mean Improvement from Baseline: Overall Skin Condition: 28%*
  Mean Improvement from Baseline: Roughness: 84%*
[2]
  Subjects Reporting Improvement from Baseline: Blotchiness: 63%
  Subjects Reporting Improvement from Baseline: Color: 68%
  Subjects Reporting Improvement from Baseline: Fine Wrinkles: 88%
  Subjects Reporting Improvement from Baseline: Texture: 88%
Week 2
  Acne Change Relative to Baseline: −4.00%
  Coarse Wrinkles Change Relative to Baseline: 4.44%
  Erythema Change Relative to Baseline: −33.33%
  Mottled Hyperpigmentation Change Relative to Baseline: −1.45%
  Roughness Change Relative to Baseline: −37.31%
  Skin Irritation Change Relative to Baseline: 0
  Skin Moisture Change Relative to Baseline: 6.22%
  TEWL Change Relative to Baseline: −1.98%
  Skin Moisture: 125.37* arbitrary units
  TEWL: 12.89 g/m^2/hr
Week 2, investigator
  Fine Wrinkles Change Relative to Baseline: −1.28%
[3]
  Acne: 0.60
  Coarse Wrinkles: 2.35
  Erythema: 0.40^††
  Fine Wrinkles: 2.18
  Mottled Hyperpigmentation: 1.70
  Roughness: 1.05*
  Skin Irritation: 0
[4]
  Blotchiness/Brown Spots: 2.70
  Fine Wrinkles: 2.62
  Overall Improvement: 2.36
  Skin Color: 2.74
  Skin Texture: 2.21
Week 4
  Acne Change Relative to Baseline: −13.64%
  Coarse Wrinkles Change Relative to Baseline: −4.76%
  Erythema Change Relative to Baseline: −47.62%
  Mottled Hyperpigmentation Change Relative to Baseline: −15.63%
  Roughness Change Relative to Baseline: −63.79%
  Skin Irritation Change Relative to Baseline: 0
  Skin Moisture Change Relative to Baseline: 20.96%
  TEWL Change Relative to Baseline: −9.62%
  Skin Moisture: 141.30* arbitrary units
  TEWL: 11.70* g/m^2/hr
Week 4, investigator
  Fine Wrinkles Change Relative to Baseline: −11.25%
[5]
  Acne: 0.53
  Coarse Wrinkles: 2.22
  Erythema: 0.31*
  Fine Wrinkles: 1.97*
  Mottled Hyperpigmentation: 1.50*
  Roughness: 0.58*
  Skin Irritation: 0
Week 4, self assessment
  Blotchiness/Brown Spots Change Relative to 2 Week Data: −6.19%
  Fine Wrinkles Change Relative to 2 Week Data: −18.68%
  Skin Color Change Relative to 2 Week Data: −5.32%
  Skin Texture Change Relative to 2 Week Data: −8.97%
  overall improvement, change relative to 2 week data: −6.17%
[6]
  Blotchiness/Brown Spots: 2.58
  Fine Wrinkles: 2.11*
  Overall Improvement: 2.14
  Skin Color: 2.50*
  Skin Texture: 2.03*
Week 8
  Acne Change Relative to Baseline: −9.52%
  Coarse Wrinkles Change Relative to Baseline: −7.23%
  Erythema Change Relative to Baseline: −66.67%
  Mottled Hyperpigmentation Change Relative to Baseline: −30.65%
  Roughness Change Relative to Baseline: −85.71%
  Skin Irritation Change Relative to Baseline: 0
  Skin Moisture Change Relative to Baseline: 35.10%
  TEWL Change Relative to Baseline: 0.11%
  Skin Moisture: 158.04* arbitrary units
  TEWL: 13.08 g/m^2/hr
Week 8, investigator
  Fine Wrinkles Change Relative to Baseline: −21.79%
[7]
  Acne: 0.53
  Coarse Wrinkles: 2.20
  Erythema: 0.20*
  Fine Wrinkles: 1.74*
  Mottled Hyperpigmentation: 1.23*
  Roughness: 0.23*
  Skin Irritation: 0
Week 8, self assessment
  Blotchiness/Brown Spots Change Relative to 2 Week Data: −18.95%
  Fine Wrinkles Change Relative to 2 Week Data: −23.60%
  Skin Color Change Relative to 2 Week Data: −18.28%
  Skin Texture Change Relative to 2 Week Data: −15.58%
  overall improvement, change relative to 2 week data: −16.25%
[8]
  Blotchiness/Brown Spots: 2.26*
  Fine Wrinkles: 2.00*
  Overall Improvement: 1.97*
  Skin Color: 2.23*
  Skin Texture: 1.91*
Week 12
  Acne Change Relative to Baseline: −45.00%
  Coarse Wrinkles Change Relative to Baseline: −13.75%
  Erythema Change Relative to Baseline: −66.67%%
  Mottled Hyperpigmentation Change Relative to Baseline: −40.68%
  Roughness Change Relative to Baseline: −83.64%
  Skin Irritation Change Relative to Baseline: 0
  Skin Moisture Change Relative to Baseline: 41.21%
  TEWL Change Relative to Baseline: −27.79%
  Skin Moisture: 165.42* arbitrary units
  TEWL: 9.54* g/m^2/hr
Week 12, investigator
  Fine Wrinkles Change Relative to Baseline: −27.63%
[9]
  Acne: 0.32*
  Coarse Wrinkles: 2.03*
  Erythema: 0.21*
  Fine Wrinkles: 1.62*
  Mottled Hyperpigmentation: 1.03*
  Roughness: 0.26*
  Skin Irritation: 0
Week 12, self assessment
  Blotchiness/Brown Spots Change Relative to 2 Week Data: −23.16%
  Fine Wrinkles Change Relative to 2 Week Data: −28.09%
  Skin Color Change Relative to 2 Week Data: −22.58%
  Skin Texture Change Relative to 2 Week Data: −23.38%
  overall improvement, change relative to 2 week data: −18.75%
[10]
  Blotchiness/Brown Spots: 2.15*
  Fine Wrinkles: 1.88*
  Overall Improvement: 1.91*
  Skin Color: 2.12*
  Skin Texture: 1.74*
Over the 12 week study period
  Skin irritation or other adverse effects: not observed

From patent US20130072505A1, “6,9-Disubstituted Purine Derivatives and Their Use for Treating Skin” (priority 2006, published 2013)
